Earlier results, collected in patent publication US20260144779A1, “MODIFIED RELEASE PHARMACEUTICAL FORMULATIONS COMPRISING DEFERIPRONE” (CHIESI FARMACEUTICI S.P.A., priority 2022, published 2026).

Settings: in vivo

Half-life: 2 to 3 h
SMILES: Cc1c(O)c(=O)ccn1C [Deferiprone, 3-hydroxy-1,2-dimethylpyridin-4-one]
